# Tested on: not listed separately
# Test: Solubility in 0.086N HCl containing 34 mM NaCl
# Format: physicochemical
row,Structure (SMILES),solubility
1,c1ccc(CN2CCC(Nc3ccc4[nH]ncc4c3)CC2)cc1,881 µg/mL
2,O=C(NCc1c(F)cccc1F)Nc1ccc2[nH]ncc2c1,5 µg/mL

# Molecular target: Rho-associated protein kinase (Homo sapiens, UniProt O75116+Q13464)
row,Structure (SMILES),IC50
1,c1c[nH]c(CN2CCCC(Nc3ccc4[nH]ncc4c3)C2)c1 (stereo not drawn),11 nM
2,O=C(NCc1ccc(Cl)cc1Cl)Nc1ccc2[nH]ncc2c1,220 nM
3,c1cncc(CN2CCCC(Nc3ccc4[nH]ncc4c3)C2)c1 (stereo not drawn),72 nM
4,O=C(NCc1ccccc1)Nc1ccc2[nH]ncc2c1,260 nM
5,Cn1ncc2cc(NC3CCCN(Cc4ccccc4)C3)ccc21 (stereo not drawn),> 10000 nM
6,c1ccc(CN2CCCC(Oc3ccc4[nH]ncc4c3)C2)cc1 (stereo not drawn),10 nM
7,c1ccc(CN2CCCC(Nc3ccc4[nH]ncc4c3)C2)nc1 (stereo not drawn),240 nM
8,COc1cc(CN2CCCC(Nc3ccc4[nH]ncc4c3)C2)cc(OC)c1 (stereo not drawn),80 nM
9,O=C(NCc1c(F)cccc1F)Nc1ccc2[nH]ncc2c1,85 nM
10,CC(C)CCN1CCCC(Nc2ccc3[nH]ncc3c2)C1 (stereo not drawn),340 nM
11,CCCN1CCCC(Nc2ccc3[nH]ncc3c2)C1 (stereo not drawn),780 nM
12,O=C(Nc1ccc2[nH]ncc2c1)C1CCCN(Cc2ccccc2)C1 (stereo not drawn),18 nM
13,c1ccc(CN2CCC(Oc3ccc4[nH]ncc4c3)CC2)cc1,100 nM
14,c1coc(CN2CCCC(Nc3ccc4[nH]ncc4c3)C2)c1 (stereo not drawn),65 nM
15,CN(CCNc1ccc2[nH]ncc2c1)Cc1ccccc1,7900 nM
16,O=C(NCc1c(Cl)cccc1Cl)Nc1ccc2[nH]ncc2c1,20 nM
17,c1cc(CN2CCCC(Nc3ccc4[nH]ncc4c3)C2)co1 (stereo not drawn),180 nM
18,O=C(NC1CCN(Cc2ccccc2)CC1)c1ccc2[nH]ncc2c1,540 nM
19,O=C(Nc1ccc2[nH]ncc2c1)C1CCN(Cc2ccccc2)CC1,136 nM

# The next lines start with the values.
row,IC50,Structure (SMILES)
1,13 nM,Clc1ccccc1CN1CCCC(Nc2ccc3[nH]ncc3c2)C1 (stereo not drawn)
2,320 nM,c1ccc(CN[C@H]2CC[C@@H](Nc3ccc4[nH]ncc4c3)CC2)cc1
3,16 nM,COc1ccc(CN2CCCC(Nc3ccc4[nH]ncc4c3)C2)cc1 (stereo not drawn)
4,10 nM,Nc1ccc(CN2CCCC(Nc3ccc4[nH]ncc4c3)C2)cc1 (stereo not drawn)
5,440 nM,Clc1ccccc1CN1CCC(Nc2ccc3[nH]ncc3c2)CC1
6,11 nM,Clc1ccc(CN2CCCC(Nc3ccc4[nH]ncc4c3)C2)cc1 (stereo not drawn)
7,> 10000 nM,O=C(Nc1ccc2[nH]ncc2c1)NC1CCN(Cc2ccccc2)CC1
8,20 nM,c1ccc(CN2CCCC(Nc3ccc4[nH]ncc4c3)C2)cc1 (stereo not drawn)
9,35 nM,Nc1cccc(CN2CCCC(Nc3ccc4[nH]ncc4c3)C2)c1 (stereo not drawn)
10,> 1000 nM,c1cc(CN2CCCC(Nc3ccc4[nH]ncc4c3)C2)c[nH]1 (stereo not drawn)
11,290 nM,Clc1cccc(CN2CCC(Nc3ccc4[nH]ncc4c3)CC2)c1
12,290 nM,Clc1ccc(CN2CCC(Nc3ccc4[nH]ncc4c3)CC2)cc1
13,9 nM,Cc1ccc(CN2CCCC(Nc3ccc4[nH]ncc4c3)C2)cc1 (stereo not drawn)
14,150 nM,Cc1n[nH]c2ccc(NC3CCCN(Cc4ccccc4)C3)cc12 (stereo not drawn)
15,520 nM,c1ccc(CN[C@H]2CC[C@H](Nc3ccc4[nH]ncc4c3)CC2)cc1
16,45 nM,Clc1ccccc1CN1CCC(Nc2ccc3[nH]ncc3c2)C1 (stereo not drawn)
17,19 nM,Clc1cccc(CN2CCCC(Nc3ccc4[nH]ncc4c3)C2)c1 (stereo not drawn)
18,25 nM,Fc1ccc(CN2CCCC(Nc3ccc4[nH]ncc4c3)C2)cc1 (stereo not drawn)
19,10 nM,Fc1ccc(CN2CCCC(Nc3ccc4[nH]ncc4c3)C2)cc1F (stereo not drawn)
20,32 nM,c1ccc(CN2CCC(Nc3ccc4[nH]ncc4c3)C2)cc1 (stereo not drawn)
21,85 nM,Nc1ccccc1CN1CCCC(Nc2ccc3[nH]ncc3c2)C1 (stereo not drawn)
22,87 nM,O=[N+]([O-])c1ccc(CN2CCCC(Nc3ccc4[nH]ncc4c3)C2)cc1 (stereo not drawn)
23,> 10000 nM,Fc1ccc(CN2CCC(CNc3ccc4[nH]ncc4c3)CC2)cc1

# Tested on: not listed separately
# Test: Solubility in water
# Format: physicochemical
row,Structure (SMILES),solubility
1,c1ccc(CN2CCC(Nc3ccc4[nH]ncc4c3)CC2)cc1,794 µg/mL
2,O=C(NCc1c(F)cccc1F)Nc1ccc2[nH]ncc2c1,5 µg/mL

# Tested on: not listed separately
# Test: Solubility in 50 mM KH2PO4 containing 24 mM NaOH
# Format: physicochemical
row,Structure (SMILES),solubility
1,c1ccc(CN2CCC(Nc3ccc4[nH]ncc4c3)CC2)cc1,495 µg/mL
2,O=C(NCc1c(F)cccc1F)Nc1ccc2[nH]ncc2c1,< 1 µg/mL

# From ChEMBL document CHEMBL1144500, “Design and synthesis of Rho kinase inhibitors (II)” (Bioorg Med Chem, 2007)
